Data on 28 compounds can be found in patent publication US11702427B2 (priority 2018, dated 2023).

One assay has as its system HBsAg. Nature of the assay: HBsAg assay: inhibition of HBsAg in HepG2.2.15 cells (CLIA immunoassay of supernatant). The conditions noted are these: Hepatitis B virus, HepG2.2.15, 144 h, read-out: sAg EC50, HepG2.2.15 cells; supernatant collected at day 6 after exposure; HBsAg chemiluminescence immunoassay. The format is cell-based, hepatitis B virus (HBV). The method, then:
Inhibition of HBsAg was determined in HepG2.2.15 cells. Cells were maintained in culture medium containing 10% fetal calf serum, […], Glutamine, penicillin/streptomycin. Cells were seeded in 96-well collagen-coated plate at a density of 30,000 cells/well. Serially diluted compounds were added to cells next day at the final DMSO concentration of 0.5%. Cells were incubated with compounds for 2-3 days, after which medium was removed. Fresh medium containing compounds was added to cells for additional 3-4 days. At day 6 after exposure of compounds, supernatant was collected, the HBsAg immunoassay (microplate-based chemiluminescence immunoassay kits, CLIA, Autobio Diagnosics Co., Zhengzhou, China, Catalog #CL0310-2) was used to determine the level of HBsAg according to manufactory instruction. Dose-response curves were generated and the EC50 value (effective concentrations that achieved 50% inhibitory effect) were determined using XLfit software. In addition, cells can be seeded at a density of 5,000 cells/well for determination of cell viability in the presence and absence of compounds by using CellTiter-Glo reagent (Promega). Tables 1-3 show EC50 values obtained by the HBsAg assay for selected compounds.
As to `COCCCOc1cc2c(cc1OC)-c1[nH]c(=O)c(C(=O)O)cc1C(C)(C(C)C)C2` (stereo not shown) [Example 6, 5-Isopropyl-9-methoxy-8-(3-methoxypropoxy)-5-methyl-2-oxo-1,6-dihydrobenzo[h]quinoline-3-carboxylic acid], the EC50 (commonly the concentration at which the effect is half-maximal) turned out to be 44 nM.
On to `COCCCOc1cc2c(cc1Cl)-c1[nH]c(=O)c(C(=O)O)cc1C(C)(C(C)C)C2` (stereo not shown) [Example 9, 9-Chloro-5-isopropyl-8-(3-methoxypropoxy)-5-methyl-2-oxo-1,6-dihydrobenzo[h]quinoline-3-carboxylic acid], for which the EC50 was 31 nM.
On the same count and under the same terms, then `COCCCOc1cc2c(cc1OC)-c1nc(OC)c(C(=O)O)cc1C(C(C)C)C2` (stereo not shown) [Example 12, 5-Isopropyl-2,9-dimethoxy-8-(3-methoxypropoxy)-5,6-dihydrobenzo[h]quinoline-3-carboxylicacid], with 1200 nM; and `COCCCOc1cc2c(cc1OC)-c1[nH]c(=O)c(C(=O)O)c(O)c1C(C(C)C)C2` (stereo not shown) [Example 13, 4-Hydroxy-5-isopropyl-9-methoxy-8-(3-methoxypropoxy)-2-oxo-1,2,5,6-tetrahydrobenzo[h]quinoline-3-carboxylicacid], with 6 nM; and `COCCCOc1cc2c(cc1Cl)-c1[nH]c(=O)c(C(=O)O)c(O)c1C(C)(C(C)C)C2` (stereo not shown) [Example 14, 9-Chloro-4-hydroxy-5-isopropyl-8-(3-methoxypropoxy)-5-methyl-2-oxo-1,2,5,6-tetrahydrobenzo[h]quinoline-3-carboxylic acid], with 62 nM.
The same measure, in the same setting: then `COCCCOc1cc2c(cc1OC)-c1[nH]c(=O)c(C(=O)O)c(F)c1C(C(C)C)C2` (stereo not shown) [Example 17, 4-Fluoro-5-isopropyl-9-methoxy-8-(3-methoxypropoxy)-2-oxo-1,2,5,6-tetrahydrobenzo[h]quinoline-3-carboxylic acid], with 640 nM; and `COCCCOc1cc2c(cc1OC)-c1c(c(O)c(C(=O)O)c(=O)n1Cc1ccccc1)C(C(C)C)C2` (stereo not shown) [Example 18, 1-Benzyl-4-hydroxy-5-isopropyl-9-methoxy-8-(3-methoxypropoxy)-2-oxo-1,2,5,6-tetrahydrobenzo[h]quinoline-3-carboxylic acid], with 15000 nM.
The same measure, in the same setting: then `COCCCOc1cc2c(cc1OC)-c1nc(Cl)c(C(=O)O)c(O)c1C(C(C)C)C2` (stereo not shown) [Example 19, 2-Chloro-4-hydroxy-5-isopropyl-9-methoxy-8-(3-methoxypropoxy)-5,6-dihydrobenzo[h]quinoline-3-carboxylicacid], with 8000 nM; and `COCCCOc1cc2c(cc1OC)-c1[nH]c(=O)c(C(=O)O)c(Cl)c1C(C(C)C)C2` (stereo not shown) [Example 20, 4-Chloro-5-isopropyl-9-methoxy-8-(3-methoxypropoxy)-2-oxo-1,2,5,6-tetrahydrobenzo[h]quinoline-3-carboxylic acid], with 3800 nM; and `COCCCOc1cc2c(cc1OC)-c1nc(Cl)c(C(=O)O)c(Cl)c1C(C(C)C)C2` (stereo not shown) [Example 21, 2,4-Dichloro-5-isopropyl-9-methoxy-8-(3-methoxypropoxy)-5,6-dihydrobenzo[h]quinoline-3-carboxylic acid], with 150 nM.
As for `COCCCOc1cc2c(cc1OC)-c1[nH]c(=O)cc(O)c1C(C(C)C)C2` (stereo not shown) [Example 22, 4-Hydroxy-5-isopropyl-9-methoxy-8-(3-methoxypropoxy)-5,6-dihydrobenzo[h]quinolin-2(1H)-one], the EC50 turned out to be 340 nM.
On the same count and under the same terms, then `COCCCOc1cc2c(cc1OC)-c1nc(Cl)c(C(=O)O)cc1C(C(C)C)C2` (stereo not shown) [Example 23, 2-Chloro-5-isopropyl-9-methoxy-8-(3-methoxypropoxy)-5,6-dihydrobenzo[h]quinoline-3-carboxylic acid], with 240 nM.
As to `COCCCOc1cc2c(nc1Cl)-c1c(cc(C(=O)O)c(=O)n1C)C(C(C)C)C2` (stereo not shown) [Example 25, 9-Chloro-5-isopropyl-8-(3-methoxypropoxy)-1-methyl-2-oxo-1,2,5,6-tetrahydro-1,10-phenanthroline-3-carboxylic acid], the concentration for a half-maximal effect (EC50) was found to be 94 nM.
Still for that read-out and setting: the same measure for `COCCCOc1cc2c(nc1Cl)-c1[nH]c(=O)c(C(=O)O)c(O)c1C(C(C)C)C2` (stereo not shown) [Example 26, 9-Chloro-4-hydroxy-5-isopropyl-8-(3-methoxypropoxy)-2-oxo-1,2,5,6-tetrahydro-1,10-phenanthroline-3-carboxylic acid]: 3 nM.
The same measure, in the same setting: the same measure for `COCCCOc1cc2c(nc1Cl)-c1[nH]c(=O)c(C(=O)O)c(O)c1C(C(C)(C)C)C2` (stereo not shown) [Example 29, 5-(tert-Butyl)-9-chloro-4-hydroxy-8-(3-methoxypropoxy)-2-oxo-1,2,5,6-tetrahydro-1,10-phenanthroline-3-carboxylicacid]: 1 nM; for `COCCCOc1cc2c(cc1OC)-c1[nH]c(=O)c(C(=O)O)c(O)c1C(C)(C(C)C)C2` (stereo not shown) [Example 30, 4-Hydroxy-5-isopropyl-9-methoxy-8-(3-methoxypropoxy)-5-methyl-2-oxo-1,2,5,6-tetrahydrobenzo[h]quinoline-3-carboxylic acid]: 58 nM.
Still for that read-out and setting: the same measure for `COCCCOc1cc2c(nc1OC)-c1[nH]c(=O)c(C(=O)O)c(O)c1C(C(C)C)C2` (stereo not shown) [Example 33, 4-Hydroxy-5-isopropyl-9-methoxy-8-(3-methoxypropoxy)-2-oxo-1,2,5,6-tetrahydro-1,10-phenanthroline-3-carboxylic acid]: 4 nM; for `COCCCOc1cc2c(nc1OC)-c1[nH]c(=O)c(C(=O)O)c(O)c1C(C(C)(C)C)C2` (stereo not shown) [Example 36, 5-(tert-Butyl)-4-hydroxy-9-methoxy-8-(3-methoxypropoxy)-2-oxo-1,2,5,6-tetrahydro-1,10-phenanthroline-3-carboxylicacid]: 1 nM; for `CCOc1nc2c(cc1OCCCOC)CC(C(C)C)c1c-2[nH]c(=O)c(C(=O)O)c1O` (stereo not shown) [Example 39, 9-Ethoxy-4-hydroxy-5-isopropyl-8-(3-methoxypropoxy)-2-oxo-1,2,5,6-tetrahydro-1,10-phenanthroline-3-carboxylicacid]: 2 nM.
Turning to `COCCCOc1cc2c(nc1OCC(F)F)-c1[nH]c(=O)c(C(=O)O)c(O)c1C(C(C)C)C2` (stereo not shown) [Example 42, 9-(2,2-Difluoroethoxy)-4-hydroxy-5-isopropyl-8-(3-methoxypropoxy)-2-oxo-1,2,5,6-tetrahydro-10-phenanthroline-3-carboxylic acid], the EC50 was 12 nM.

The same assay, now with this note: read-out: sAg EC50; HepG2.2.15 cells; supernatant collected at day 6 after exposure; HBsAg chemiluminescence immunoassay.
With `COCCCOc1cc2c(nc1Cl)-c1[nH]c(=O)c(C(=O)O)c(O)c1C(C(C)(C)C)CO2` (single isomer, unassigned) [Example 77, 7-(tert-Butyl)-2-chloro-8-hydroxy-3-(3-methoxypropoxy)-10-oxo-6,7,10,11-tetrahydrooxepino[3,2-b:4,5-b′]dipyridine-9-carboxylic acid], the EC50 was 6 nM.
Turning to `COCCCOc1cc2c(nc1Cl)-c1[nH]c(=O)c(C(=O)O)c(O)c1C(C(C)(C)C)CO2` (single isomer, unassigned) [Example 78, 7-(tert-Butyl)-2-chloro-8-hydroxy-3-(3-methoxypropoxy)-10-oxo-6,7,10,11-tetrahydrooxepino[3,2-b:4,5-b′]dipyridine-9-carboxylicacid], the EC50 came out at 6000 nM.
Regarding `CCc1nc2c(cc1OCCCOC)OCC(C(C)(C)C)c1c-2[nH]c(=O)c(C(=O)O)c1O` (single isomer, unassigned) [Example 80, 7-(tert-Butyl)-2-ethyl-8-hydroxy-3-(3-methoxypropoxy)-10-oxo-6,7,10,11-tetrahydrooxepino[3,2-b:4,5-b′]dipyridine-9-carboxylic acid], the concentration for a half-maximal effect (EC50) was found to be 7000 nM.
Same read-out and setting: then `CCc1nc2c(cc1OCCCOC)OCC(C(C)(C)C)c1c-2[nH]c(=O)c(C(=O)O)c1O` (single isomer, unassigned) [Example 81, 7-(tert-Butyl)-2-ethyl-8-hydroxy-3-(3-methoxypropoxy)-10-oxo-6,7,10,11-tetrahydrooxepino[3,2-b:4,5-b′]dipyridine-9-carboxylic acid], with 4 nM.
On to `COCCCOc1cc2c(nc1C1CC1)-c1[nH]c(=O)c(C(=O)O)c(O)c1C(C(C)(C)C)CO2` (single isomer, unassigned) [Example 82, 7-(tert-Butyl)-2-cyclopropyl-8-hydroxy-3-(3-methoxypropoxy)-10-oxo-6,7,10,11-tetrahydrooxepino[3,2-b:4,5-b′]dipyridine-9-carboxylic acid], for which the EC50 was found to be 30000 nM.
The same measure, in the same setting: the same measure for `COCCCOc1cc2c(nc1C1CC1)-c1[nH]c(=O)c(C(=O)O)c(O)c1C(C(C)(C)C)CO2` (single isomer, unassigned) [Example 83, 7-(tert-Butyl)-2-cyclopropyl-8-hydroxy-3-(3-methoxypropoxy)-10-oxo-6,7,10,11-tetrahydrooxepino[3,2-b:4,5-b′]dipyridine-9-carboxylic acid]: 15 nM; for `COCCCOc1cc2c(nc1OC)-c1[nH]c(=O)c(C(=O)O)c(O)c1C(C(C)(C)C)CO2` (single isomer, unassigned) [Example 85, 7-(tert-Butyl)-8-hydroxy-2-methoxy-3-(3-methoxypropoxy)-10-oxo-6,7,10,11-tetrahydrooxepino[3,2-b:4,5-b′]dipyridine-9-carboxylic acid]: 66 nM; for `COCCCOc1cc2c(nc1OC)-c1[nH]c(=O)c(C(=O)O)c(O)c1C(C(C)(C)C)CO2` (single isomer, unassigned) [Example 86, 7-(tert-Butyl)-8-hydroxy-2-methoxy-3-(3-methoxypropoxy)-10-oxo-6,7,10,11-tetrahydrooxepino[3,2-b:4,5-b′]dipyridine-9-carboxylic acid]: 30000 nM.
